Read-outs that look alike come from different tables or passages of the source.
Experiments:
5HT5A = biological target: T1, 5HT5A (Homo sapiens, UniProt P47898); test: GPCRmax screen, agonist mode, 5HT5A; type: cell-based; details: for % Agonist Activity: HTR5A
T1 construct: β-galactosidase enzyme fragment (enzyme fragment complementation reporter); host or cells: PathHunter cell lines
Protocol: (§1) Studies were performed at Eurofins DiscoverX Corporation (Fremont, CA) using the GPCRmax assay according to the manufacturer’s protocols. […] Activity greater than 30% typically indicates agonist activity and inhibition greater than 50% indicates antagonist activity. This assay uses enzyme fragment complementation with […] as the functional reporter. When a GPCR is activated, […] is recruited and the reporter is detectable. GPCRmax offers a high-throughput screen of 168 GPCRs for agonist or antagonist activity. Briefly, PathHunter cell lines were propagated, seeded into 384-well microplates and incubated at 37°C. […] Microplates were read following signal generation with a PerkinElmer Envision™ instrument for chemiluminescent signal detection. Compound activity was analyzed using CBIS data analysis suite (ChemInnovation, CA) to determine raw values (RLU). For agonist mode assay, percentage activity was calculated using the following formula: % Activity =100% × (mean RLU of test sample - mean RLU of vehicle control) / (mean MAX control ligand - mean RLU of vehicle control). For antagonist mode assay, percentage inhibition was calculated using the following formula: % Inhibition =100% × (1 - (mean RLU of test sample - mean RLU of vehicle control) / (mean RLU of EC80 control - mean RLU of vehicle control)).

[1] = test system: frontal cortex gene expression; test: RNA-seq differential gene expression, frontal cortex; type: in vivo, rat; details: 10 mg/kg IP, 8 h; for Number of genes significantly regulated: vs vehicle
5HT2A receptor [2] = biological target: T2, 5HT2A receptor (Homo sapiens, UniProt P28223); test: GPCRmax screen, antagonist mode, 5HT2A; type: cell-based; details: HTR2A
T2 construct: β-galactosidase enzyme fragment (enzyme fragment complementation reporter); host or cells: PathHunter cell lines
T2 sequence (P28223 whole entry, the tested form may be a part): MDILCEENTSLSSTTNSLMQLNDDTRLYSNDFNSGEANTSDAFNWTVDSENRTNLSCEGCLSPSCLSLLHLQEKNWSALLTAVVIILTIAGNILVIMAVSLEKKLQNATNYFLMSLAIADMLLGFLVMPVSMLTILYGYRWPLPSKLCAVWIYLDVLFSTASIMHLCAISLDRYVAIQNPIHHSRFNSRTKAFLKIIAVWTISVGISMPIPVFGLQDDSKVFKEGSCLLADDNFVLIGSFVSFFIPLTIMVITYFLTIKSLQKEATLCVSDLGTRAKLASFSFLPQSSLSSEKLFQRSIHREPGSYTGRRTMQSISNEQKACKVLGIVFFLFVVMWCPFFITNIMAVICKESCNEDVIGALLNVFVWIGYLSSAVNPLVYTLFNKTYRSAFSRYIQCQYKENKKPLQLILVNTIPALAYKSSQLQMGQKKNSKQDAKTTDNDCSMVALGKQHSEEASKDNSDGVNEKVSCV
Protocol: as §1

5HT2C receptor [3] = biological target: T3, 5HT2C receptor (Homo sapiens, UniProt P28335); test: GPCRmax screen, agonist mode, 5HT2C; type: cell-based; details: for % Agonist Activity: HTR2C
T3 construct: β-galactosidase enzyme fragment (enzyme fragment complementation reporter); host or cells: PathHunter cell lines
T3 sequence (P28335 33-458): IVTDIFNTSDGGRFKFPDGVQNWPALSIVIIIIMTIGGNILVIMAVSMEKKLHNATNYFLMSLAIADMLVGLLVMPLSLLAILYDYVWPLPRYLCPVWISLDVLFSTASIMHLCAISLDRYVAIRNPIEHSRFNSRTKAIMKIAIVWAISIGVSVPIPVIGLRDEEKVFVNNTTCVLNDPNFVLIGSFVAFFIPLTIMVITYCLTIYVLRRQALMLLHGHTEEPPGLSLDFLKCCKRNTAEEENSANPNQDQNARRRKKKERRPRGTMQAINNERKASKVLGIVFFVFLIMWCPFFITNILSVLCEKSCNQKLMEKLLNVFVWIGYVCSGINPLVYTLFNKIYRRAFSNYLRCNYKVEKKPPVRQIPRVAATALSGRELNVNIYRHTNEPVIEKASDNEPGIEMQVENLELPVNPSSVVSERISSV
Protocol: as §1

5HT2C receptor [4] = biological target: T3, 5HT2C receptor; test: GPCRmax screen, antagonist mode, 5HT2C; type: cell-based; details: for % Antagonist Activity: HTR2C
Protocol: as §1

amygdala gene expression = test: RNA-seq differential gene expression, amygdala; type: in vivo, rat; details: 10 mg/kg IP, 8 h
[5] = biological target: T4, serotonin (5HT) transporter (SERT) (Rattus norvegicus, UniProt P31652); test: Competitive radioligand binding, [3H]citalopram, rat brain membranes
T4 construct: Rat brains were dissected and tissue was homogenized in cold lysis buffer; from tissue; host or cells: rat brain membrane preparation
T4 sequence (P31652 whole entry): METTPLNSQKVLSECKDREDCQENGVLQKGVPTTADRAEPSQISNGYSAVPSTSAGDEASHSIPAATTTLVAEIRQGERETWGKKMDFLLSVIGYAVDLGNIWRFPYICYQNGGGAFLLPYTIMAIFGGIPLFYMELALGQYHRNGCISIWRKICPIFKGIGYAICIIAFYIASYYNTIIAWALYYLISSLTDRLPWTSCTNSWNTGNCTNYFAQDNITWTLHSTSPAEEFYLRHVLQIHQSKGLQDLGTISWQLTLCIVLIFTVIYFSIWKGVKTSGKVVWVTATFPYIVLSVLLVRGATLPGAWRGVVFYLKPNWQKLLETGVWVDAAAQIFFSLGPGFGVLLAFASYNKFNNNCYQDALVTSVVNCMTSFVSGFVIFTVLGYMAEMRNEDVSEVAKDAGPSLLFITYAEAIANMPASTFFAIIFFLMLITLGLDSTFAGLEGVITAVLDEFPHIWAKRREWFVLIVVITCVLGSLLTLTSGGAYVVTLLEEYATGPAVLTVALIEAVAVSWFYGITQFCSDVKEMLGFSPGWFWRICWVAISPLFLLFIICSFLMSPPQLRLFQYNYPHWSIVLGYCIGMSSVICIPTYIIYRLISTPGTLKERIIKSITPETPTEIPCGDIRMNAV
Protocol: (§2) All studies were performed at Gifford Bioscience, Ltd. (Birmingham, UK) according to standard protocols.
(§3) Radioligands used were: [^3H] Citalopram (PerkinElmer NET1039250UC); [^3H] Nisoxetine (PerkinElmer NET1084250UC); [^3H] WIN35428 (PerkinElmer NET1033250UC). Nonspecific compounds used were Citalopram (Tocris Bioscience 1,427); JHW007 (Tocris Bioscience 4,351); Nomifensine (Abcam ab146004). […] Rat brains were dissected and tissue was homogenized in cold lysis buffer, centrifuged at 100xg for 2 min and the supernatant was placed in a fresh tube. Supernatant was centrifuged at 13,000 × g for 10 min at 4°C to re-pellet the cell lysate. The pellet was resuspended in fresh wash buffer (50 mM Tris–HCl; 5 mM MgCl2; 5 mM EDTA) and centrifuged a third time. The pellet was then resuspended in wash buffer containing 10% sucrose as a cryoprotectant, divided into aliquots (0.3 mL) and stored at −80°C. A sample of the homogenate was analyzed for protein content using the Sigma® BCA assay. On the day of the assay, the membrane preparation was thawed and the pellet resuspended in final assay buffer. […] Filters were then dried under a warm air stream, sealed in polyethylene, scintillation cocktail added, and the radioactivity counted in a Wallac® TriLux 1,450 MicroBeta counter. […] Ki was subsequently calculated using the Cheng-Prusoff equation.

5HT2A receptor [6] = biological target: T2, 5HT2A receptor; test: GPCRmax screen, agonist mode, 5HT2A; type: cell-based; details: for % Agonist Activity: HTR2A
Protocol: as §1

[7] = biological target: T5, dopamine (DA) transporter (DAT) (Rattus norvegicus, UniProt P23977); test: Competitive radioligand binding, [3H]WIN35428, rat brain membranes
T5 construct: Rat brains were dissected and tissue was homogenized in cold lysis buffer; from tissue; host or cells: rat brain membrane preparation
T5 sequence (P23977 whole entry): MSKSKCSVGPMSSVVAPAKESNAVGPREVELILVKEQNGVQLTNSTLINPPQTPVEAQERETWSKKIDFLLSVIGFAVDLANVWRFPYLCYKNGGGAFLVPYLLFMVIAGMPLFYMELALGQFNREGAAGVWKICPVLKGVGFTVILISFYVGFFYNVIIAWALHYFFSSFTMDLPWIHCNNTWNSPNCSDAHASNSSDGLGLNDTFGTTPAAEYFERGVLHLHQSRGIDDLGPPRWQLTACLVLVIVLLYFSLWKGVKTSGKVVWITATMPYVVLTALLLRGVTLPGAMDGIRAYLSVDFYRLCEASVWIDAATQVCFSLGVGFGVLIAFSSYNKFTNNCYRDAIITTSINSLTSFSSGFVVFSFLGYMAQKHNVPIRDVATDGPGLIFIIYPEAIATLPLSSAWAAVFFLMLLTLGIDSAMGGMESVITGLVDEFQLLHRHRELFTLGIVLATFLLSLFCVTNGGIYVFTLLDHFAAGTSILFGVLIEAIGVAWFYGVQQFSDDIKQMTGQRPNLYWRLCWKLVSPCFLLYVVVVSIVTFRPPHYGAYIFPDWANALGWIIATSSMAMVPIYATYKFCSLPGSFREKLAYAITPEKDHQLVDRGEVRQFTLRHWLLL
Protocol: as §2, §3

168 GPCRs = biological target: T6, 168 GPCRs (Homo sapiens, UniProt P35408); type: cell-based; details: PTGER4
T6 construct: host or cells: PathHunter cell lines
T6 sequence (P35408 whole entry): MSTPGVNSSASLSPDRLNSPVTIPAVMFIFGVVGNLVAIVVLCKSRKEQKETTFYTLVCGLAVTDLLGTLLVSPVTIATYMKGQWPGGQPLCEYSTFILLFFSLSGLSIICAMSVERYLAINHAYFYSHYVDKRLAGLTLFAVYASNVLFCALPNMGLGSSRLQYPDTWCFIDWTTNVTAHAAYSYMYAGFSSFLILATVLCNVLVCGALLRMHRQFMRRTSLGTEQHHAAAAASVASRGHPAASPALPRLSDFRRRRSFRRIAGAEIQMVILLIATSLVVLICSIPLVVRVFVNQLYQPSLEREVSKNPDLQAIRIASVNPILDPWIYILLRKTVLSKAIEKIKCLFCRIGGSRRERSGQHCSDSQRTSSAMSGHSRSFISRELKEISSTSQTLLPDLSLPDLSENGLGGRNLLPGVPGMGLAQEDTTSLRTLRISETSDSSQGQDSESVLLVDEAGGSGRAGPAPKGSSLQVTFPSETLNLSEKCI
Protocol: as §1

T1 sequence (P47898 whole entry, the tested form may be a part): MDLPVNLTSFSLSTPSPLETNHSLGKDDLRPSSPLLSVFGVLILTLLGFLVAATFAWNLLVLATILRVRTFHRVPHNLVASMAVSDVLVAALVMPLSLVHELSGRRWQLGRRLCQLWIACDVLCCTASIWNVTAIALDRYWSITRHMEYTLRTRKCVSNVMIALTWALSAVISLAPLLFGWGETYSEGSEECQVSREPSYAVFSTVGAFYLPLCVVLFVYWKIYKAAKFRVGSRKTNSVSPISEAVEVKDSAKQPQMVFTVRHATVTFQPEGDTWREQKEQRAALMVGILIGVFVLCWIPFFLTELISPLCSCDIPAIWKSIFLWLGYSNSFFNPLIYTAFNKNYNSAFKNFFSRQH

Row | Compound | % Agonist Activity (5HT5A; 1 uM) | % Agonist Activity (5HT5A; 10 uM) | Number of genes significantly regulated ([1]; frontal cortex) | % Antagonist Activity (5HT2A receptor [2]; 1 uM) | % Antagonist Activity (5HT2A receptor [2]; 10 uM) | % Agonist Activity (5HT2C receptor [3]; 1 uM) | % Agonist Activity (5HT2C receptor [3]; 10 uM) | % Antagonist Activity (5HT2C receptor [4]; 1 uM) | % Antagonist Activity (5HT2C receptor [4]; 10 uM) | % Agonist Activity (5HT2A receptor [6]; 1 uM) | % Agonist Activity (5HT2A receptor [6]; 10 uM) | % Agonist Activity (168 GPCRs; Conc 1 uM) | % Antagonist Activity (168 GPCRs; Conc 1 uM) | % Agonist Activity (168 GPCRs; Conc 10 uM) | % Antagonist Activity (168 GPCRs; Conc 10 uM) | further results
1 | CNC(C)C(=O)c1ccc2c(c1)OCO2 (stereo not drawn) [methylone] | 13.6% | 13.9% | 480 genes | -7.9% | -2.7% | 1.4% | 3.7% | 21.1% | 24.2% | -0.1% | 1.4% | -2.8% | 10.1% | -1.4% | 4.3% | % agonist activity, 5HT5A (greatest activity detected) (5HT5A; 1 or 10 μM, threshold 30% activity): 13.9%; Induction of BDNF, increase compared with controls ([1]; RNA-seq): ~ 60%; Share of genes regulated by this drug that are also regulated by the other drug (amygdala gene expression): 87%; Ki [5]: 4.15 µM; Ki [7]: 5.73 µM
2 | CNC(C)Cc1ccc2c(c1)OCO2 (stereo not drawn) [MDMA, 3,4-Methylenedioxy methamphetamine, reference compound] | 7.2% | 0.8% | 825 genes | 5.1% | 3% | 15.9% | 28% | 22.5% | 52.2% | 4.9% | 27.5% | 11.1% | 7.2% | 7.8% | 11.7% | More genes significantly regulated compared to methylone ([1]; frontal cortex): ~ 72%; % agonist activity, 5HT2C (5HT2C receptor [3]; 10 μM, cutoff 30% activity): 28.0%; % antagonist activity (inhibition), 5HT2C (5HT2C receptor [4]; Figure 2B, threshold 50% inhibition): 52.2%; Additional genes significantly regulated by this drug only (amygdala gene expression; vs vehicle): 1,313; Ki ([5]; read-out: Ki, SERT, competitive radioligand binding, rat brain membranes, Cheng-Prusoff): 2.62 µM; % agonist activity, 5HT2A (5HT2A receptor [6]; 10 μM, cutoff 30% activity): 27.5%; Ki ([7]; read-out: Ki, DAT, competitive radioligand binding, rat brain membranes, Cheng-Prusoff): 5.11 µM

— article PMC10882719 (Frontiers in Neuroscience, 2024)
